Experimental data as given in article PMC3353486, “Fluorescence Correlation Spectroscopy in Drug Discovery: Study of Alexa532-Endothelin 1 Binding to the Endothelin ETA Receptor to Describe the Pharmacological Profile of Natural Products” (The Scientific World Journal, 2012).

Tests used:
endothelin ETA receptor = biological target: T1, endothelin ETA receptor (Rattus norvegicus, UniProt P26684); test: FCS binding of Alexa532-ET1 to ETA receptor on living A10 cells (total, saturation, lateral mobility)
T1 construct: endothelin ETA receptor-ligand complex alone and under the influence of a semisynthetic selective antagonist and a fungal extract on living A10 cells; endogenous in cells; host or cells: A10 cells
T1 sequence (P26684 21-426): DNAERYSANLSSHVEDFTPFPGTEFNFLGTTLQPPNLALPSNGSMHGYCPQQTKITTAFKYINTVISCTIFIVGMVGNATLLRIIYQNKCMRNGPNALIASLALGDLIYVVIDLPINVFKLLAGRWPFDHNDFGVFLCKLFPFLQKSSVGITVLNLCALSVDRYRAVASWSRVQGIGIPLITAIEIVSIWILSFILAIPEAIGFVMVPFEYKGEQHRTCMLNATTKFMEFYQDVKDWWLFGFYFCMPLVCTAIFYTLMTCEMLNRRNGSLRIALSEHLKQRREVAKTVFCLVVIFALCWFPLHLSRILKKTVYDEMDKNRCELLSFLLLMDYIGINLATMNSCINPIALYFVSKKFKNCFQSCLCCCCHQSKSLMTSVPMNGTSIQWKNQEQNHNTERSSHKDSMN
Description: FCS measurements were performed via confocal illumination of a volume element of 0.19 fL in a ConfoCor 1 instrument (Zeiss, Jena, Germany) with a C-Apochromat 63x, NA 1.2 objective for water immersion. A dichroic filter and a band-pass filter (FT 540, EF 530–600) (Andover, Salem, MA) separated the excitation light from the emitted fluorescence. Sample excitation was performed with the 514 nm line of an argon laser. The power of the laser beam entering the sample was 2.4 kW/cm^2. The intensity fluctuations were detected by an avalanche photodiode (SPCM-AQ Series, PerkinElmer Optoelectronics, Fremont, ON) and were correlated with a digital hardware correlator (ALV-5000, ALV, Langen, Germany). To calibrate the volume element of observation for the experiments, a defined concentration of tetramethylrhodamine (TMR) was used. From the determined diffusion time constant of TMR and the diffusion coefficient D of 280 μm^2/s, the radio ω 0 (0.20 μm) and z 0 (1.08 μm) of the volume element were determined. Volume element positioning to the upper membrane of the cell was performed by motor-aided scanning through the cell in the z-direction (optoelectronical DC-servodrives, resolution of 0.1 μm). For the FCS experiments, the focus was placed at half maximal of fluorescence intensity at the upper membrane, taking in fast diffusing free ligand and slow diffusing receptor-ligand complexes in the plasma membrane.
A10 cells were seeded at a density of 5.0 × 10^4 on 18 mm poly-D-lysine-coated coverslips. The coverslips were placed in a Nunc 12 well plate, and the cells were cultured for 7 days in Dulbecco's Modified Essential Media supplemented with L-glutamine (2 mM), 1% of a solution containing 10000 I.U./mL penicillin and 10000 μg/mL streptomycin (GIBCO, Invitrogen, Karlsruhe, Germany) and 20% foetal calf serum. The cells were grown in 5% CO2 at 37°C until confluence was reached.
Prior to the FCS measurements, cells were washed three times with Locke's solution (5 mM HEPES, 154 mM NaCl, 5.6 mM KCl, 1 mM MgCl2, 3.6 mM Na2CO3, 2.0 mM glucose, 2.3 mM CaCl2 (pH 7.4)) at 37°C.
The autocorrelation function G(τ) for j different diffusing components in a three-dimensional Gaussian volume element is given by the following equation:
(2) τDj=ω02/4Dj, (3) Qj=σjηjgj, where N j is the average number of molecules of the species j in the volume element, τ Dj is the diffusion time constant of the species j, τ is the correlation time; ω 0 is the radius of the observation volume in the focal plane, z 0 is the radius of the observation volume in the z-direction, D j is the translational diffusion coefficient of the species j; Q j is the quantum yield factor, σ j is the absorption coefficient, η j is the fluorescence quantum yield, and g j is the fluorescence detection efficiency of the species j.
All data points from FCS measurements represent mean values and standard deviations of six independent experiments. The statistical significance of results was proven with one factorial analysis of variance (ANOVA). The results were considered to be significant for P values ≤0.05.

[1] = test system: Rat vascular smooth muscle A10 cells; test: Inositol phosphate (IP1) production, IP-One ELISA, A10 cells; format: cell-based; details: 0.5 to 50 nM ligand, 30 min; for inositol phosphate (IP1) production, dose-dependent increase up to: ELISA read at 450 nm, mean ± SEM of eight measurements
Description: The inositol phosphate determination assay was performed using the IP-One ELISA Kit for adherent cells (CISBIO, Cedex, France) following the operation instructions. […] The test substances were diluted in the stimulation buffer to a final concentration ranging from 0.5 to 50 nM. Cells were incubated for 30 minutes before their lysis. The supernatant was transferred into the ELISA plate where the competitive immunoassay took place. After the reaction was stopped, the optical density corresponding to IP accumulation was read at 450 nm with Bio-Rad Microplate Reader (Bio-Rad, Munich, Germany).
Data are presented as the mean ± SEM of eight measurements.

GABAA receptor = details: coincubated benzodiazepines, hippocampal neurons, selectively complexes with hindered lateral mobility; cited from earlier work
Excerpt: For the ETA receptor model described here, as well as for the GABAA and the β 2-adrenergic receptor models described elsewhere, the proportion of the fast diffusing receptor-ligand complexes was higher than that of slow diffusing receptor-ligand complexes. These findings ...

ETA receptor = test system: ETA receptor; set-up: method as in PMID 8942650; details: ET-1/receptor complexes dissociate slowly; cited from earlier work
[2] = 14.3 nM Alexa532-ET1, equilibrium
[3] = control, 14.3 nM Alexa532-ET1, 45 min, living A10 cells, FCS, mean ± SD of six independent experiments

Row | Molecule | total binding (endothelin ETA receptor; 14.3 nM Alexa532-ET1, 45 min, 20°C) | total bound ligand concentration (endothelin ETA receptor; 14.3 nM Alexa532-ET1, 45 min, 20°C, equilibrium) | bound ligand with hindered diffusion (D bound1) (endothelin ETA receptor; [2]) | receptor-ligand complexes with unrestricted lateral mobility (D bound2) (endothelin ETA receptor; [2]) | maximum number of binding sites B max (endothelin ETA receptor; bound versus total ligand, nonlinear curve fitting) | Free L with D free [%] (endothelin ETA receptor; [3]) | R-L with D bound1 [%] (hindered diffusion, % of total Alexa532-ET1) (endothelin ETA receptor; [3]) | R-L with D bound2 [%] (unrestricted lateral mobility, % of total Alexa532-ET1) (endothelin ETA receptor; [3]) | diffusion time constant τ bound2 (endothelin ETA receptor; receptor-ligand complex in plasma membrane, fast, 14.3 nM, 45 min, 20°C, n = 6) | diffusion time constant τ bound1 (endothelin ETA receptor; receptor-ligand complex in plasma membrane, slow, 14.3 nM, 45 min, 20°C, n = 6) | diffusion coefficient D bound1 (endothelin ETA receptor; receptor-ligand complexes with hindered lateral mobility, calculated from τ bound1) | diffusion coefficient D bound2 (endothelin ETA receptor; receptor-ligand complexes with unrestricted mobility, calculated from τ bound2) | total concentration at which binding saturates (endothelin ETA receptor; saturation of Alexa532-ET1 binding, 5–55 nM, 45 min) | inositol phosphate production (in words) [1] | inositol phosphate (IP1) production, dose-dependent increase up to [1] | diffusion time constant τ free (free diffusing Alexa532-ET1 in solution, n = 6) | diffusion coefficient D free (free diffusing ligand, calculated from τ free using equation (2)) | effect on Alexa532-muscimol binding (in words) (GABAA receptor) | incubation time necessary to reach thermodynamic equilibrium (ETA receptor)
1 | CC[C@H](C)[C@H](NC(=O)[C@H](CC(=O)O)NC(=O)[C@H](CC(C)C)NC(=O)[C@H](Cc1c[nH]cn1)NC(=O)[C@@H]1CSSC[C@H](N)C(=O)N[C@@H](CO)C(=O)N[C@H]2CSSC[C@H](NC(=O)[C@H](CCC(=O)O)NC(=O)[C@H](CCCCNC(=O)c3ccc(C4=c5cc6c(c(S(=O)(=O)O)c5Oc5c4cc4c(c5S(=O)(=O)O)NC(C)C4(C)C)=NC(C)C6(C)C)cc3)NC(=O)[C@H](CC(=O)O)NC(=O)[C@H](CCSC)NC(=O)[C@H](CC(C)C)NC(=O)[C@H](CO)NC(=O)[C@H](CO)NC2=O)C(=O)N[C@@H](C(C)C)C(=O)N[C@@H](Cc2ccc(O)cc2)C(=O)N[C@@H](Cc2ccccc2)C(=O)N1)C(=O)N[C@H](C(=O)N[C@@H](Cc1c[nH]c2ccccc12)C(=O)O)[C@@H](C)CC (some centres unmarked) [Alexa532-ET1] | 43.5 ± 12.3% | 6.22 ± 1.7 nM | 2.3 ± 0.7 nM | 3.9 ± 1.0 nM | 7.70 ± 0.74 nM | 56.5 ± 8.5% | 16.0 ± 5.2% | 27.5 ± 7.0% | 1.8 ± 0.2 ms | 63.6 ± 41.6 ms | 0.16 ± 0.06 μm^2/s | 5.6 ± 0.6 μm^2/s | approximately 35 nM | Dose-dependent increase of inositol phosphate production | 70 to 80 nM | 95.6 ± 9.0 μs | 104.2 ± 9.0 μm^2/s |  | 
2 | Cc1ncc2n1-c1ccc(Cl)cc1C(c1ccccc1F)=NC2 [midazolam] |  |  |  |  |  |  |  |  |  |  |  |  |  |  |  |  |  | increased binding of Alexa532-muscimol | 
3 | Endothelin-1 [ET-1, reference compound] |  |  |  |  |  |  |  |  |  |  |  |  |  |  | 70 to 80 nM |  |  |  | more than 20 h
